# In ChEMBL document CHEMBL4808194, “Design, synthesis and biological evaluation of novel 2,4-disubstituted quinazoline derivatives targeting H1975 cells via EGFR-PI3K signaling pathway” (Bioorg Med Chem, 2021):
# Calls of active or inactive are those of the source. No cut-off for these calls is given here.
# Experiments:
# NCI-H1975 [1] = experiment: Cell cycle arrest in human NCI-H1975 cells assessed as accumulation at G1 phase at 2 uM incubated for 24 hrs by propidium iodide staining based flow cytometric analysis (reference value: 50.56 %); type: functional
# NCI-H1975 [2] = experiment: Induction of apoptosis in human NCI-H1975 cells assessed as shrunken and broken nuclear morphology at 2 to 8 uM incubated for 48 hrs by DAPI staining based fluorescence microscopic analysis; type: functional, cell-based; settings: dose 2-8 µM
# NCI-H1975 [3] = experiment: Induction of apoptosis in human NCI-H1975 cells assessed as viable cells at 2 uM incubated for 48 hrs Annexin V-FITC/PI staining based flow cytometric analysis (reference value: 90.9%); type: functional; settings: read-out: Activity
# NCI-H1975 [4] = experiment: Inhibition of cell migration in human NCI-H1975 cells incubated for 72 hrs by scratch wound healing assay; type: functional, cell-based; settings: dose 0.5-2 µM
# NCI-H1975 [5] = experiment: Inhibition of colony formation in human NCI-H1975 cells assessed as fewer and smaller cell colonies incubated for 7 days by crystal violet staining based microscopic analysis; type: functional; settings: dose 0.5-2 µM, time 7.0 day
# MDA-MB-231 = experiment: cells; type: functional, cell-based; settings: Homo sapiens, MDA-MB-231, 72 h
# MGC-803 = experiment: cells; type: functional, cell-based; settings: Homo sapiens, MGC-803, 72 h
# Description: Antiproliferative activity against human MGC-803 cells assessed as inhibition of cell growth incubated for 72 hrs by MTT assay
# NCI-H1975 [6] = experiment: cells; type: functional, cell-based; settings: Homo sapiens, NCI-H1975, 72 h
# Description: Antiproliferative activity against human NCI-H1975 cells assessed as inhibition of cell growth incubated for 72 hrs by MTT assay
# PC-3 = experiment: cells; type: functional, cell-based; settings: Homo sapiens, PC-3, 72 h
# Description: Antiproliferative activity against human PC-3 cells assessed as inhibition of cell growth incubated for 72 hrs by MTT assay
# NCI-H1975 [7] = experiment: Cell cycle arrest in human NCI-H1975 cells assessed as accumulation at S phase at 2 uM incubated for 24 hrs by propidium iodide staining based flow cytometric analysis (reference value: 30.87%); type: functional
# NCI-H1975 [8] = experiment: Cell cycle arrest in human NCI-H1975 cells assessed as accumulation at G2 phase at 2 uM incubated for 24 hrs by propidium iodide staining based flow cytometric analysis (reference value: 18.57 %); type: functional
# NCI-H1975 [9] = experiment: Cell cycle arrest in human NCI-H1975 cells assessed as accumulation at G1 phase at 4 uM incubated for 24 hrs by propidium iodide staining based flow cytometric analysis (reference value: 50.56 %); type: functional
# NCI-H1975 [10] = experiment: Cell cycle arrest in human NCI-H1975 cells assessed as accumulation at S phase at 4 uM incubated for 24 hrs by propidium iodide staining based flow cytometric analysis (reference value: 30.87%); type: functional
# NCI-H1975 [11] = experiment: Cell cycle arrest in human NCI-H1975 cells assessed as accumulation at G2 phase at 4 uM incubated for 24 hrs by propidium iodide staining based flow cytometric analysis (reference value: 18.57 %); type: functional
# NCI-H1975 [12] = experiment: Cell cycle arrest in human NCI-H1975 cells assessed as accumulation at G1 phase at 8 uM incubated for 24 hrs by propidium iodide staining based flow cytometric analysis (reference value: 50.56 %); type: functional
# NCI-H1975 [13] = experiment: Cell cycle arrest in human NCI-H1975 cells assessed as accumulation at S phase at 8 uM incubated for 24 hrs by propidium iodide staining based flow cytometric analysis (reference value: 30.87%); type: functional
# NCI-H1975 [14] = experiment: Cell cycle arrest in human NCI-H1975 cells assessed as accumulation at G2 phase at 8 uM incubated for 24 hrs by propidium iodide staining based flow cytometric analysis (reference value: 18.57 %); type: functional
# NCI-H1975 [15] = experiment: Induction of apoptosis in human NCI-H1975 cells assessed as increase in p53 level at 2 to 8 uM by western blot analysis; type: functional, cell-based; settings: dose 2-8 µM
# NCI-H1975 [16] = experiment: Induction of apoptosis in human NCI-H1975 cells assessed as increase in Bax level at 2 to 8 uM by western blot analysis; type: functional, cell-based; settings: dose 2-8 µM
# NCI-H1975 [17] = experiment: Induction of apoptosis in human NCI-H1975 cells assessed as decrease in Bcl2 level at 2 to 8 uM by western blot analysis; type: functional, cell-based; settings: dose 2-8 µM
# NCI-H1975 [18] = experiment: Induction of ROS generation in human NCI-H1975 cells assessed increase in ROS level at 2 to 8 uM incubated for 48 hrs by DHE staining based fluorescence microscopy; type: functional, cell-based; settings: dose 2-8 µM
# [19] = target: Epidermal growth factor receptor (Homo sapiens) (UniProt P00533); experiment: Inhibition of EGFR in human NCI-H1975 cells assessed as reduction in EGFR phosphorylation level by Western blot analysis; type: cell-based; settings: dose 2-8 µM
# [20] = target: Epidermal growth factor receptor (Homo sapiens) (UniProt P00533); experiment: Inhibition of EGFR in human NCI-H1975 cells assessed as reduction in PI3K phosphorylation level by Western blot analysis; type: cell-based; settings: dose 2-8 µM
# NCI-H1975 [21] = experiment: Induction of apoptosis in human NCI-H1975 cells assessed as early apoptotic cells at 2 uM incubated for 48 hrs Annexin V-FITC/PI staining based flow cytometric analysis (reference value: 1%); type: functional
# NCI-H1975 [22] = experiment: Induction of apoptosis in human NCI-H1975 cells assessed as late apoptotic cells at 2 uM incubated for 48 hrs Annexin V-FITC/PI staining based flow cytometric analysis (reference value: 2.53%); type: functional
# NCI-H1975 [23] = experiment: Induction of apoptosis in human NCI-H1975 cells assessed as necrotic cells at 2 uM incubated for 48 hrs Annexin V-FITC/PI staining based flow cytometric analysis (reference value: 4.74%); type: functional
# NCI-H1975 [24] = experiment: Induction of apoptosis in human NCI-H1975 cells assessed as viable cells at 4 uM incubated for 48 hrs Annexin V-FITC/PI staining based flow cytometric analysis (reference value: 90.9%); type: functional; settings: read-out: Activity
# NCI-H1975 [25] = experiment: Induction of apoptosis in human NCI-H1975 cells assessed as early apoptotic cells at 4 uM incubated for 48 hrs Annexin V-FITC/PI staining based flow cytometric analysis (reference value: 1%); type: functional
# NCI-H1975 [26] = experiment: Induction of apoptosis in human NCI-H1975 cells assessed as late apoptotic cells at 4 uM incubated for 48 hrs Annexin V-FITC/PI staining based flow cytometric analysis (reference value: 2.53%); type: functional
# NCI-H1975 [27] = experiment: Induction of apoptosis in human NCI-H1975 cells assessed as necrotic cells at 4 uM incubated for 48 hrs Annexin V-FITC/PI staining based flow cytometric analysis (reference value: 4.74%); type: functional
# NCI-H1975 [28] = experiment: Induction of apoptosis in human NCI-H1975 cells assessed as viable cells at 8 uM incubated for 48 hrs Annexin V-FITC/PI staining based flow cytometric analysis (reference value: 90.9%); type: functional; settings: read-out: Activity
# NCI-H1975 [29] = experiment: Induction of apoptosis in human NCI-H1975 cells assessed as early apoptotic cells at 8 uM incubated for 48 hrs Annexin V-FITC/PI staining based flow cytometric analysis (reference value: 1%); type: functional
# NCI-H1975 [30] = experiment: Induction of apoptosis in human NCI-H1975 cells assessed as late apoptotic cells at 8 uM incubated for 48 hrs Annexin V-FITC/PI staining based flow cytometric analysis (reference value: 2.53%); type: functional
# NCI-H1975 [31] = experiment: Induction of apoptosis in human NCI-H1975 cells assessed as necrotic cells at 8 uM incubated for 48 hrs Annexin V-FITC/PI staining based flow cytometric analysis (reference value: 4.74%); type: functional
# Chain of Epidermal growth factor receptor (Homo sapiens) (P00533 whole entry): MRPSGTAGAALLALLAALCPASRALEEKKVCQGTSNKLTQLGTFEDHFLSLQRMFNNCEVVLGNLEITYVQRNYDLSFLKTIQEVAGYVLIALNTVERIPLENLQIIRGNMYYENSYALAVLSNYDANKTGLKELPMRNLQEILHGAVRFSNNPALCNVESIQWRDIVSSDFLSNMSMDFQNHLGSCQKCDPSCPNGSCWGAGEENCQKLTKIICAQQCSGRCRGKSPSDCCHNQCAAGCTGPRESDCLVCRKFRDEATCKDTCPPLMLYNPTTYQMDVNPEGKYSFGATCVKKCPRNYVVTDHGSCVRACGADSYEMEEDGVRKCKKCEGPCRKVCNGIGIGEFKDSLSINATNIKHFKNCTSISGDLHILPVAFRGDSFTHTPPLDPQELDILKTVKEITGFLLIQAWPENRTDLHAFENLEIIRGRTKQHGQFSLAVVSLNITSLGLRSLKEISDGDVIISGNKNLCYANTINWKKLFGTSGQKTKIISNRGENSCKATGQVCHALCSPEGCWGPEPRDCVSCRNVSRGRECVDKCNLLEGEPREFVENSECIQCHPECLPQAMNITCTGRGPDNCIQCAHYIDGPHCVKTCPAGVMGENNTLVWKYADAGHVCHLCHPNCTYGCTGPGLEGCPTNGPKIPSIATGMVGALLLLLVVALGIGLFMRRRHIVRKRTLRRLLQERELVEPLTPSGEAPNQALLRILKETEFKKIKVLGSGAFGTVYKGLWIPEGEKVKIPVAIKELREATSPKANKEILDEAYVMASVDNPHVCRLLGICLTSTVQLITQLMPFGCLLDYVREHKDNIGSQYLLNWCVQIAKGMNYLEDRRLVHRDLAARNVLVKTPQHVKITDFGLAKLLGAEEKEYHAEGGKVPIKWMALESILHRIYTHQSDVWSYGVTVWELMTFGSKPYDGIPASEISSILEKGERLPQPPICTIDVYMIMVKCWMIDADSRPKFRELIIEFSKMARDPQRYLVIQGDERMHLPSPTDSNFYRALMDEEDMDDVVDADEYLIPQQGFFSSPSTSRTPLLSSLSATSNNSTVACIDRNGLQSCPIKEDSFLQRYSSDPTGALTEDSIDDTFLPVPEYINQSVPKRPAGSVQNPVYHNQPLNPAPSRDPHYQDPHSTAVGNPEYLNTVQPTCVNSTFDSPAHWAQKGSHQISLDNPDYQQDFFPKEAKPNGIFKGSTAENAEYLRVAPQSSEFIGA
smiles,measurement,setting,value
C=CC(=O)Nc1cccc(NC(=O)CSc2nc(Nc3cccc(F)c3)c3ccccc3n2)c1,Activity,NCI-H1975 [1],55.32%
same,Activity,NCI-H1975 [2],Active
same,viability at 2 µM,NCI-H1975 [3],78.5%
same,inhibition,NCI-H1975 [4],Dose-Dependent Effect
same,inhibition,NCI-H1975 [5],Dose-Dependent Effect
same,IC50,MDA-MB-231,8.16 µM
same,IC50,MGC-803,6.25 µM
same,IC50,NCI-H1975 [6],2.03 µM
same,IC50,PC-3,5.37 µM
same,Activity,NCI-H1975 [7],28.59%
same,Activity,NCI-H1975 [8],16.09%
same,Activity,NCI-H1975 [9],62.46%
same,Activity,NCI-H1975 [10],32.22%
same,Activity,NCI-H1975 [11],5.32%
same,Activity,NCI-H1975 [12],63.16%
same,Activity,NCI-H1975 [13],33.44%
same,Activity,NCI-H1975 [14],3.4%
same,Activity,NCI-H1975 [15],Active
same,Activity,NCI-H1975 [16],Active
same,Activity,NCI-H1975 [17],Active
same,Activity,NCI-H1975 [18],Active
same,inhibition,[19],Dose-Dependent Effect
same,inhibition,[20],Dose-Dependent Effect
same,Activity,NCI-H1975 [21],7.91%
same,Activity,NCI-H1975 [22],8.83%
same,Activity,NCI-H1975 [23],4.75%
same,viability at 4 µM,NCI-H1975 [24],63.7%
same,Activity,NCI-H1975 [25],9.73%
same,Activity,NCI-H1975 [26],14.2%
same,Activity,NCI-H1975 [27],12.4%
same,viability at 8 µM,NCI-H1975 [28],53.4%
same,Activity,NCI-H1975 [29],18.2%
same,Activity,NCI-H1975 [30],32.3%
same,Activity,NCI-H1975 [31],14.3%
